What was measured:
Protease M = experiment: Relative activity on nitrophenyl-sugar substrates: Protease M; assay type: biochemical, Aspergillus oryzae; conditions: 100 units arbitrarily chosen for the substrate on which Protease M exhibited the most activity
Procedure: (§1) The relative activity of Protease M and β-glycosidase on different sugar substrates was assessed. A panel of substrates comprising a nitrophenyl group conjugated to different sugars was used in the study.

β-glycosidase = experiment: Relative activity on nitrophenyl-sugar substrates: β-glycosidase; assay type: biochemical, Penicillium multicolor; conditions: 100 units arbitrarily chosen for the substrate on which β-glycosidase exhibited the most activity
Procedure: as §1

Row | relative activity of β-glycosidase for the substrate (β-glycosidase) | SMILES | relative activity of Protease M for the substrate (Protease M)
1 | 55 activity units | O=[N+]([O-])c1ccc(O[C@@H]2O[C@H](CO)[C@@H](O[C@@H]3O[C@H](CO)[C@@H](O)[C@H](O)[C@H]3O)[C@H](O)[C@H]2O)cc1 [4-Nitrophenyl β-D-cellobioside] | 68 activity units
2 | 12 activity units | O=[N+]([O-])c1ccc(O[C@@H]2O[C@H](CO)[C@@H](O)[C@H](O)[C@@H]2O)cc1 [4-Nitrophenyl β-D-mannopyranoside] | 10 activity units
3 | 85 activity units | O=[N+]([O-])c1ccc(O[C@@H]2O[C@H](CO)[C@H](O)[C@H](O)[C@H]2O)cc1 [4-Nitrophenyl β-D-galactopyranoside] | 100 activity units
4 | 57 activity units | O=[N+]([O-])c1ccc(O[C@@H]2O[C@H](CO)[C@@H](O[C@H]3O[C@H](CO)[C@@H](O)[C@H](O)[C@H]3O)[C@H](O)[C@H]2O)cc1 [4-Nitrophenyl β-D-maltoside] | 63 activity units
5 | 12 activity units | O=C(O)[C@H]1O[C@@H](Oc2ccc([N+](=O)[O-])cc2)[C@H](O)[C@@H](O)[C@@H]1O [4-Nitrophenyl β-D-glucuronide] | 4 activity units

The next lines start with the molecule.

Row | SMILES | relative activity of β-glycosidase for the substrate (β-glycosidase) | relative activity of Protease M for the substrate (Protease M)
6 | O=[N+]([O-])c1ccc(O[C@H]2O[C@H](CO)[C@@H](O)[C@H](O)[C@@H]2O)cc1 [4-Nitrophenyl α-D-mannopyranoside] | 19 activity units | 4 activity units
7 | O=[N+]([O-])c1ccc(O[C@H]2O[C@H](CO)[C@H](O)[C@H](O)[C@H]2O)cc1 [4-Nitrophenyl α-D-galactopyranoside] | 100 activity units | 6 activity units
8 | O=[N+]([O-])c1ccc(O[C@@H]2OC[C@H](O)[C@H](O)[C@H]2O)cc1 [4-Nitrophenyl α-L-arabinopyranoside] | 60 activity units | 29 activity units
9 | O=[N+]([O-])c1ccc(O[C@H]2O[C@H](CO)[C@@H](O)[C@H](O)[C@H]2O)cc1 [4-Nitrophenyl α-D-glucopyranoside] | 19 activity units | 42 activity units

— patent US20070020744A1, “Enzyme compositions that enhance the flavor of food and beverages” (Amano Enzyme USA Co., Ltd, priority 2005, published 2007)
